We go through 11 molecules from patent US10077237B2 (Sanofi, priority 2013, dated 2018).

For the assay, the target named is T1, recombinant human AMPK complex, containing α2β1γ2 (Homo sapiens, UniProt P54646+Q9Y478).
T1 construct: hsAMPKα2-552-His, hsAMPKβ1-2-270 and hsAMPKγ-2-569 respectively; hsAMPKβ1-2-270; hsAMPKγ-2-569; His (C); made in house; host or cells: Spodoptera frugiperda Sf21 (baculovirus)
In words: AMPK in vitro activation assay (HTRF). The format is biochemical. The settings on record: for EC50: HTRF, recombinant human α2β1γ2 AMPK, 200 μM ATP, biotinylated ACC-CREBp peptide, repeat determinations on separate lines; for α2β1γ2 AMPK Emax / Emax: potentiation of AMPK activity as percent over the basal signal (without compound). The procedure: The recombinant human AMPK complex, containing α2β1γ2 was obtained from baculovirus expression system and generated by cotransfection in Spodoptera frugiperda 21 (Sf21). […] were produced in serum free medium (SF900 II, Invitrogen) for 82 hours after a triple infection at a multiplicity of infection (M.O.I.) of 0.05, 0.06 and 0.045 for hsAMPKα2-552-His, hsAMPKβ1-2-270 and hsAMPKγ-2-569 respectively. Cells were harvested by centrifugation at 1,000×g for 10 minutes at 4° C. and stored at −80° C. The insect cell pellet from 8 liters of culture was resuspended and homogenized in 580 ml of lysis buffer (20 mM Hepes pH 7.5, 150 mM NaCl, 10 mM imidazole, 50 mM NaF, 10% Glycerol and supplemented with EDTA free proteases inhibitor cocktail Roche). The AMPK complex was partially purified using an affinity chromatography under a Ni-NTA Agarose column equilibrated in the lysis buffer and eluted with a gradient (0 to 400 mM) of Imidazol.
A homogeneous time-resolved fluorescence (HTRF) assay was used (Li et al, Anal. Biochem. (2003) 321, 151-156) to identify compounds with stimulating activity for the recombinant human AMPK. Enzyme reaction was performed into a 96-well microtiter plate. First, 20 μL of test compounds in 0.5% DMSO were dispensed followed by 10 μL of protein in 50 mM HEPES buffer at pH 7.0, 100 mM NaCl, 5 mM MgCl2, 0.01% BSA, 0.8 mM DTT. After, 30 min incubation at room temperature, the reaction was initiated by the addition of 10 μL of a solution containing 200 μM of ATP as donor substrate, 2 μM or 0.08 μM of biotinylated ACC-CREBp peptide (PolyPeptide) as acceptor. Plates were then incubated 45 min at 37° C. The reaction was terminated by the addition of 40 μl detection mixture containing Eu^3+ cryptate-conjugated anti-pS^133-CREB antibody and streptavidine-XL665 (CisBio). Plates were further incubated for 2 h30 at room temperature. The fluorescence signal was measured using an Envision multireader (Perkin Elmer). The non-specific signal was obtained without substrates. Potentiation of AMPK activity was expressed as a percent over the basal signal (without compound) from which an EC50 value was determined.
The EC50 of a graded dose response curve represents the concentration of a compound where 50% of its maximal effect is observed.

Values joined by “and” are separate entries in the source; they are usually repeats but may differ in a detail not shown here. Identical values can stand only once.

T1 sequence (P54646 2-552): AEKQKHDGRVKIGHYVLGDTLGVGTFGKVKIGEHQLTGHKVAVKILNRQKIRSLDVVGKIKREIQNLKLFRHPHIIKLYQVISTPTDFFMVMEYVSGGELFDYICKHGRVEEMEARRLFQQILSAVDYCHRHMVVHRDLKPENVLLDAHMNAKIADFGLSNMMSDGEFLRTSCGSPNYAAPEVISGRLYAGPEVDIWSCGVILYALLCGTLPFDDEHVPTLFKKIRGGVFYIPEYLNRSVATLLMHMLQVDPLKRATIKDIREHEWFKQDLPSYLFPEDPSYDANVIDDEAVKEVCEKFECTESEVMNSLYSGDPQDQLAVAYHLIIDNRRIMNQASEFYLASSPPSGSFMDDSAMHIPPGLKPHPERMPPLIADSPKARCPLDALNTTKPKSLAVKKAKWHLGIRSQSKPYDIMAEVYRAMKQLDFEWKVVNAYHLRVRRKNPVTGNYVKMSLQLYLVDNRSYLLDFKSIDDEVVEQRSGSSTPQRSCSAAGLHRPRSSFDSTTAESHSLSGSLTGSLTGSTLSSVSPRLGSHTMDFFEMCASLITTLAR
T1 sequence (Q9Y478 2-270): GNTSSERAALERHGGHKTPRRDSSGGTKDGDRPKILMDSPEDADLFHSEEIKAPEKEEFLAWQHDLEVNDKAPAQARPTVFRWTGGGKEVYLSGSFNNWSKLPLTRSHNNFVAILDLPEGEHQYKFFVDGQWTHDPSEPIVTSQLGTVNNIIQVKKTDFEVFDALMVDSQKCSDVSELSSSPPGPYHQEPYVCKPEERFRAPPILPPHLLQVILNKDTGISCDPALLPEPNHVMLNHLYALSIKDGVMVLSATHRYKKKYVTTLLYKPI
T1 sequence (Q9UGJ0 2-569 partner limits assumed): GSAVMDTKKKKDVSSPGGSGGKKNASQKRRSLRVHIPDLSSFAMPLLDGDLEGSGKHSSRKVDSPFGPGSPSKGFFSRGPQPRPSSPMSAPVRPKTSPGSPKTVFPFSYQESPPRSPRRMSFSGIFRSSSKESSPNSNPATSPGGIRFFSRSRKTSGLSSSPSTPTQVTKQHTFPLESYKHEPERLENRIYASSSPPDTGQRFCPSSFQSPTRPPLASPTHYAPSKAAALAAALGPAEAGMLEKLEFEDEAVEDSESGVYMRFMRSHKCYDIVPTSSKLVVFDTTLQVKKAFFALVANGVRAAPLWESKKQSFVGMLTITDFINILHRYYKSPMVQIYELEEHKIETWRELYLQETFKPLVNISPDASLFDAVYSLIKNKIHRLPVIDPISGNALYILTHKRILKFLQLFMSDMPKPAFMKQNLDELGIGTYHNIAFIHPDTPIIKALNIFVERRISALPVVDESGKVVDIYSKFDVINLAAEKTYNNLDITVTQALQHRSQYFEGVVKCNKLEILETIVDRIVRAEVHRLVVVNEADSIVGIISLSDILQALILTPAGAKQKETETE

“6-Chloro-3-[1-hydroxy-1-(3-methoxy-isoxazol-yl)-methylidene]-5-[4-(1-hydroxymethyl-cyclopropyl)-phenyl]-1,3-dihydro-indol-2-one [Compound 54]”: the EC50 – broadly, the concentration at which the effect is half-maximal – came to 5 nM and the “α2β1γ2 AMPK Emax” value was “(187) %”.

In the case of `Cc1cc(C(O)=C2C(=O)Nc3cc(Cl)c(-c4ccc(N(C)C)cc4)cc32)on1` [Compound 1, 6-Chloro-5-(4-dimethylamino-phenyl)-3-[1-hydroxy-1-(3-methyl-isoxazol-5-yl)-methylidene]-1,3-dihydro-indol-2-one], the EC50 came out at 21 nM and the “α2β1γ2 AMPK Emax” value is on record as “(124 +/− 11) %”.

As to `Cc1cc(C([O-])=C2C(=O)Nc3cc(Cl)c(-c4ccc(N(C)C)cc4)cc32)on1.[Na+]` [Compound 2, 6-Chloro-5-(4-dimethylamino-phenyl)-3-[1-hydroxy-1-(3-methyl-isoxazol-5-yl)-methylidene]-1,3-dihydro-indol-2-one, sodium salt], the EC50 is 53 nM and the “α2β1γ2 AMPK Emax” value was “(183 +/− 51) %”.

For the molecule `O=C1Nc2cc(Cl)c(-c3ccc(N4CCOCC4)cc3)cc2C1=C(O)c1cccc(O)c1` [Compound 3, 6-Chloro-3-[1-hydroxy-1-(3-hydroxy-phenyl)-methylidene]-5-(4-morpholin-4-yl-phenyl)-1,3-dihydro-indol-2-one], the half-maximal effective concentration (EC50) was found to be 190 nM and the Emax – broadly, the maximal effect, on the per cent scale that the assay sets – came out at 138%.

Turning to `O=C1Nc2cc(Cl)c(-c3ccc(N4CCOCC4)cc3)cc2C1=C(O)c1cccc(C(=O)O)c1` [Compound 4, 3-{[6-Chloro-5-(4-morpholin-4-yl-phenyl)-2-oxo-1,2-dihydro-indolylidene]-hydroxy-methyl}-benzoic acid], the EC50 was 15 nM and the Emax was 97%.

In the case of `COc1cccc(-c2ccc(-c3cc4c(cc3Cl)NC(=O)C4=C(O)c3cc(C)no3)cc2)c1O` [Compound 5, 6-Chloro-5-(2′-hydroxy-3′-methoxy-biphenyl-4-yl)-3-[1-hydroxy-1-(3-methyl-isoxazol-5-yl)-meth-ylidene]-1,3-dihydro-indol-2-one], the EC50 is 4 nM and the Emax was 193%.

Turning to `Cc1cc(C(O)=C2C(=O)Nc3cc(Cl)c(-c4ccc(C5(CO)CC5)cc4)cc32)on1` [Compound 6, 6-Chloro-5-[4-(1-hydroxymethyl-cyclopropyl)-phenyl]-3-[1-hydroxy-1-(3-methyl-isoxazol-5-yl)-methylidene]-1,3-dihydro-indol-2-one], the half-maximal effective concentration (EC50) stood at 7 nM and the Emax is 186%.

Turning to `O=C1Nc2cc(Cl)c(-c3ccc(-c4ccccc4)cc3)cc2C1=C(O)c1ccccc1` [Compound 7, 5-Biphenyl-4-yl-6-chloro-3-[1-hydroxy-1-phenyl-methylidene]-1,3-dihydro-indol-2-one], the EC50 turned out to be 1400 nM and the Emax was 57%.

Consider `CN(C)c1ccc(-c2cc3c(cc2Cl)NC(=O)C3=C(O)c2cccc(C(=O)O)c2)cc1` [Compound 8, 3-{[6-Chloro-5-(4-dimethylamino-phenyl)-2-oxo-1,2-dihydro-indolylidene]-hydroxy-methyl}-benzoic acid], for which the EC50 turned out to be 33 nM and the Emax was 124%.

As to `CN(C)c1ccc(-c2cc3c(cc2Cl)NC(=O)C3=C(O)c2ccc(C(=O)O)cc2)cc1` [Compound 9, 4-{[6-Chloro-5-(4-dimethylamino-phenyl)-2-oxo-1,2-dihydro-indolylidene]-hydroxy-methyl}-benzoic acid], the EC50 is 24 nM and 23 nM; the maximal effect (Emax) is 120%.

As to `Cc1ncc(C(O)=C2C(=O)Nc3cc(Cl)c(-c4ccc(N(C)C)cc4)cc32)s1` [Compound 10, 6-Chloro-5-(4-dimethylamino-phenyl)-3-[1-hydroxy-1-(2-methyl-thiazol-5-yl)-methylidene]-1,3-dihydro-indol-2-one], the EC50 is 89 nM and the Emax is 127%.
